Measured values as given in patent US9359645B2, “Methods for detecting diabetic nephropathy comprising measuring the expression of Smad1” (HUBIT GENOMIX INC., priority 2003, dated 2016).

System: Smad1
Test: Smad1 morpholino antisense oligonucleotide in AGEs-treated mesangial cells (Smad1 and Col4 expression)
Format: cell-based, mouse
Conditions: for AGEs-mediated overproduction (overexpression) of Col4: mesangial cells treated with AGEs; for AGEs-mediated induction of Smad1: mesangial cells, 72 hr AGEs then 16 hr with oligo
Protocol: A glomerular mesangial cell strain was established from glomeruli isolated from normal, 4 week-old mice (C57BL/6JxSJL/J), and was identified according to the method previously described (S1). The mesangial cells were cultured in B medium (a 3:1 mixture of minimal essential medium/F12 modified with trace elements) supplemented with 1 mM glutamine, 100 units/ml penicillin, […] streptomycin and 20% fetal calf serum. The cultured cells fulfilled the criteria generally accepted for glomerular mesangial cells (S2). AGEs or BSA exposure was carried out as described previously (S3).
Mesangial cells were cultured in the presence of AGEs or BSA (as control) for 72 hours. Cells were harvested in sample buffer, resolved by SDS-polyacrylamide gel electrophoresis and transferred to nitro-cellulose membrane and subjected to Western blot using a 1:500 dilution of anti-Smad1 antibody and anti-pSmad1 antibody (Santa Cruz Biotechnology), followed by detection using an enhanced chemiluminescence detection system (Invitrogen, Carlsbad, Calif.).
Cultured cells were fixed in 4% paraformaldehyde. The following antibodies were used: anti-Smad1 antibody, 1:100 (Santa Cruz Biotechnology); anti-pSmad1 antibody, 1:100 (Calbiochem). An appropriate fluoresceine isothiocyanate-conjugated secondary antibody was used for visualization and imaging was done using a laser microscope and a fluorescent microscope (Olympus, Tokyo, Japan).
The antisense oligonucleotide used was a 25-nucleotide morpholino oligo (Genetools LLC, Philomath, Oreg.). The sequence is 5′-[…]-3′ (SEQ ID NO: 13). As a control, an oligo with the base composition 5′-CAtGCTcGTCACATTCAaAGCcGCT-3′ (SEQ ID NO: 18) was used. In vitro RNA transcription was performed as previously described (S7).

Substance	AGEs-mediated overproduction (overexpression) of Col4	AGEs-mediated induction of Smad1
Smad1 mismatch oligo: control oligo 5′-CAtGCTcGTCACATTCAaAGCcGCT-3′ (SEQ ID NO: 18) (CATGCTCGTCACATTCAAAGCCGCT; listed as DNA, chemistry not given here)	no effect	not
antisense oligo to Smad1: 25-nucleotide morpholino oligo, 5′-CAAGCTGGTCACATTCATAGCGGCT-3′ (SEQ ID NO: 13) (all phosphorodiamidate morpholino (PMO))	remarkably attenuates	completely abolished
